Laboratory results: ChEMBL document CHEMBL3885881, “DrugMatrix”

Species: Rattus norvegicus
Test: DrugMatrix - Regimen: Daily Repeat
Format: toxicity, organism-based, Sprague-Dawley
Set-up: regimen Daily Repeat, gender Male, age 6-8 weeks
Details: in vivo, po, route oral GAVAGE, vehicle 100 % WATER; for ABSOLUTE BASOPHIL / ABSOLUTE EOSINOPHIL / ABSOLUTE LYMPHOCYTE / ABSOLUTE MONOCYTE / ABSOLUTE SEGMENTED NEUTROPHIL / BASOPHIL / EOSINOPHIL / ERYTHROCYTE COUNT / HEMATOCRIT / HEMOGLOBIN / LEUKOCYTE COUNT / LYMPHOCYTE / MEAN CORPUSCULAR HEMOGLOBIN / MEAN CORPUSCULAR HEMOGLOBIN CONCENTRATION / MEAN CORPUSCULAR VOLUME / MONOCYTE / NEUTROPHIL / NUCLEATED RED BLOOD CELLS / PLATELET COUNT: tissue Blood; for ALANINE AMINOTRANSFERASE / ALBUMIN / ALKALINE PHOSPHATASE / ASPARTATE AMINOTRANSFERASE / BLOOD UREA NITROGEN / CARBON DIOXIDE / CHLORIDE / CHOLESTEROL / CREATINE PHOSPHOKINASE / CREATININE / GLUCOSE / LACTATE DEHYDROGENASE / LIPASE / PHOSPHORUS / POTASSIUM / SODIUM / TOTAL BILIRUBIN / TOTAL PROTEIN / URIC ACID: tissue Plasma
[1] = 5 mg/kg, 120 h, dose level Low, time 5 day
[2] = 500 mg/kg, 72 h, dose level High, time 3 day
[3] = 500 mg/kg, 120 h, dose level High, time 5 day

COc1cc2nc(N3CCN(C(=O)C4COc5ccccc5O4)CC3)nc(N)c2cc1OC (centres undefined) [DOXAZOSIN]
ABSOLUTE BASOPHIL [1]: 0 CELLS/uL | ABSOLUTE EOSINOPHIL [1]: 0 CELLS/uL | ABSOLUTE LYMPHOCYTE [1]: 9952.67 CELLS/uL | ABSOLUTE MONOCYTE [1]: 136 CELLS/uL | ABSOLUTE SEGMENTED NEUTROPHIL [1]: 844.67 CELLS/uL | BASOPHIL [1]: 0% | EOSINOPHIL [1]: 0% | ERYTHROCYTE COUNT [1]: 5.87 x10E6/uL | HEMATOCRIT [1]: 36.6% | HEMOGLOBIN [1]: 13.9 G/DL | LEUKOCYTE COUNT [1]: 10.93 x10E3/uL | LYMPHOCYTE [1]: 91% | MEAN CORPUSCULAR HEMOGLOBIN [1]: 23.73 pg | MEAN CORPUSCULAR HEMOGLOBIN CONCENTRATION [1]: 37.97 G/DL | MEAN CORPUSCULAR VOLUME [1]: 62.47 fL | MONOCYTE [1]: 1.33% | NEUTROPHIL [1]: 7.67% | NUCLEATED RED BLOOD CELLS [1]: 0 /100WBC | PLATELET COUNT [1]: 1169.67 x10E3/uL | ALANINE AMINOTRANSFERASE [1]: 54.67 u/L | ALBUMIN [1]: 4.07 G/DL | ALKALINE PHOSPHATASE [1]: 345.67 u/L | ASPARTATE AMINOTRANSFERASE [1]: 85.33 u/L | BLOOD UREA NITROGEN [1]: 17.67 mg/dL | CARBON DIOXIDE [1]: 33 mmol/L | CHLORIDE [1]: 101.67 MEQ/L | CHOLESTEROL [1]: 70.33 mg/dL | CREATINE PHOSPHOKINASE [1]: 283.33 u/L | CREATININE [1]: 0.19 mg/dL | GLUCOSE [1]: 123 mg/dL | LACTATE DEHYDROGENASE [1]: 105 u/L | LIPASE [1]: 11.33 u/L | PHOSPHORUS [1]: 11.23 mg/dL | POTASSIUM [1]: 6.38 MEQ/L | SODIUM [1]: 145.93 MEQ/L | TOTAL BILIRUBIN [1]: 0.17 mg/dL | TOTAL PROTEIN [1]: 6.07 G/DL | URIC ACID [1]: 1.13 mg/dL | ABSOLUTE BASOPHIL [2]: 0 CELLS/uL | ABSOLUTE EOSINOPHIL [2]: 73 CELLS/uL | ABSOLUTE LYMPHOCYTE [2]: 6631.33 CELLS/uL | ABSOLUTE MONOCYTE [2]: 53.67 CELLS/uL | ABSOLUTE SEGMENTED NEUTROPHIL [2]: 808.67 CELLS/uL | BASOPHIL [2]: 0% | EOSINOPHIL [2]: 1.33% | ERYTHROCYTE COUNT [2]: 5.62 x10E6/uL | HEMATOCRIT [2]: 34.87% | HEMOGLOBIN [2]: 13.47 G/DL | LEUKOCYTE COUNT [2]: 7.57 x10E3/uL | LYMPHOCYTE [2]: 85.33% | MEAN CORPUSCULAR HEMOGLOBIN [2]: 23.97 pg | MEAN CORPUSCULAR HEMOGLOBIN CONCENTRATION [2]: 38.63 G/DL | MEAN CORPUSCULAR VOLUME [2]: 62.07 fL | MONOCYTE [2]: 1% | NEUTROPHIL [2]: 12.33% | NUCLEATED RED BLOOD CELLS [2]: 0 /100WBC | PLATELET COUNT [2]: 1290.67 x10E3/uL | ALANINE AMINOTRANSFERASE [2]: 66 u/L | ALBUMIN [2]: 4.03 G/DL | ALKALINE PHOSPHATASE [2]: 327 u/L | ASPARTATE AMINOTRANSFERASE [2]: 79 u/L | BLOOD UREA NITROGEN [2]: 14.33 mg/dL | CARBON DIOXIDE [2]: 29.67 mmol/L | CHLORIDE [2]: 100.33 MEQ/L | CHOLESTEROL [2]: 97.33 mg/dL | CREATINE PHOSPHOKINASE [2]: 248 u/L | CREATININE [2]: 0.21 mg/dL | GLUCOSE [2]: 140.67 mg/dL | LACTATE DEHYDROGENASE [2]: 232.33 u/L | LIPASE [2]: 10.33 u/L | PHOSPHORUS [2]: 10.53 mg/dL | POTASSIUM [2]: 5.08 MEQ/L | SODIUM [2]: 143.17 MEQ/L | TOTAL BILIRUBIN [2]: 0.37 mg/dL | TOTAL PROTEIN [2]: 6.17 G/DL | URIC ACID [2]: 0.67 mg/dL | ABSOLUTE BASOPHIL [3]: 0 CELLS/uL | ABSOLUTE EOSINOPHIL [3]: 121 CELLS/uL | ABSOLUTE LYMPHOCYTE [3]: 10491.67 CELLS/uL | ABSOLUTE MONOCYTE [3]: 80.67 CELLS/uL | ABSOLUTE SEGMENTED NEUTROPHIL [3]: 940 CELLS/uL | BASOPHIL [3]: 0% | EOSINOPHIL [3]: 1% | ERYTHROCYTE COUNT [3]: 5.32 x10E6/uL | HEMATOCRIT [3]: 33.53% | HEMOGLOBIN [3]: 13.03 G/DL | LEUKOCYTE COUNT [3]: 11.63 x10E3/uL | LYMPHOCYTE [3]: 90.33% | MEAN CORPUSCULAR HEMOGLOBIN [3]: 24.5 pg | MEAN CORPUSCULAR HEMOGLOBIN CONCENTRATION [3]: 38.93 G/DL | MEAN CORPUSCULAR VOLUME [3]: 62.93 fL | MONOCYTE [3]: 0.67% | NEUTROPHIL [3]: 8% | NUCLEATED RED BLOOD CELLS [3]: 0.33 /100WBC | PLATELET COUNT [3]: 350.67 x10E3/uL | ALANINE AMINOTRANSFERASE [3]: 64 u/L | ALBUMIN [3]: 3.8 G/DL | ALKALINE PHOSPHATASE [3]: 343 u/L | ASPARTATE AMINOTRANSFERASE [3]: 99.33 u/L | BLOOD UREA NITROGEN [3]: 18.33 mg/dL | CARBON DIOXIDE [3]: 30.67 mmol/L | CHLORIDE [3]: 102 MEQ/L | CHOLESTEROL [3]: 54.67 mg/dL | CREATINE PHOSPHOKINASE [3]: 485.67 u/L | CREATININE [3]: 0.29 mg/dL | GLUCOSE [3]: 141.33 mg/dL | LACTATE DEHYDROGENASE [3]: 106.67 u/L | LIPASE [3]: 9.67 u/L | PHOSPHORUS [3]: 10.73 mg/dL | POTASSIUM [3]: 5.43 MEQ/L | SODIUM [3]: 145.97 MEQ/L | TOTAL BILIRUBIN [3]: 0.2 mg/dL | TOTAL PROTEIN [3]: 5.37 G/DL | URIC ACID [3]: 0.83 mg/dL
